PMC9586938, “Picomolar fluorescent probes for compound affinity determination to carbonic anhydrase IX expressed in live cancer cells” (Scientific Reports, 2022)

Target: T1, catalytic domain of recombinant human CAIX (Homo sapiens, UniProt Q16790)
T1 construct: Isozymes CAIX, CAXII, and CAXIV were the catalytic domains of the proteins; made in house; host or cells: mammalian cells
Assay: Stopped-flow assay (SFA) of inhibition of CAIX catalytic activity
Format: biochemical
Protocol: The binding affinities of all fluorescein-containing compounds were determined for all 12 catalytically active CA isozymes by the thermal shift assay (TSA). […] However, the SFA technique cannot determine the affinities lower than the enzyme concentration used in the assay. […] In addition, we used isothermal titration calorimetry (ITC), the standard assay to determine affinity and enthalpy of protein–ligand binding. […] Therefore, ITC was used only to determine the enthalpy of interaction and confirm the ordering of compound affinities.
Inhibition of the CAIX catalytic activity (hydration reaction of CO2 to acid protons and bicarbonate) by selected compounds has been determined as previously described[41],[42]. The CA enzymatic activity and its inhibition were followed by the rate of change in pH spectrophotometrically followed by the change in color of indicator phenol red. Addition of increased concentrations of an inhibitor slowed the rate of the change in pH. The assay was performed using the stopped-flow equipment. The rate of spontaneous acidification due to CO2 hydration in water was subtracted from the enzymatically catalyzed rate.

Q: With “3-((2-(cyclooctylamino)-3,5,6-trifluoro-4-(methylsulfonyl)phenyl)sulfonyl)-N-(3',6'-dihydroxy-3-oxo-3H-spiro[isobenzofuran-1,9'-xanthen]-5-yl)propanamide and 3-((3-(cyclooctylamino)-2,5,6-trifluoro-4-(methylsulfonyl)phenyl)sulfonyl)-N-(3',6'-dihydroxy-3-oxo-3H-spiro[isobenzofuran-1,9'-xanthen]-5-yl)propanamide [GZ20-37]” as the substance, how does the Ki read?
A: 1500 nM
